Test results taken from patent publication US9061030B2, “sGC stimulators” (IRONWOOD PHARMACEUTICALS, INC., priority 2010, dated 2015).

Test system: Thoracic aortic rings
Assay: Thoracic aortic rings assay
Design: species or system rat
Conditions: relaxation of rat thoracic aortic rings contracted with 100 ng/mL phenylephrine; read-out: Aortic Ring EC50
Description: Thoracic aortic rings were dissected from anesthetized (isoflurane) male Sprague-Dawley rats weighing 275-299 g. Tissues were immediately transferred to ice-cold Krebs-Henseleit solution, which had been aerated with 95% O2 and 5% CO2 for 30 minutes. Following removal of connective tissue, aortic sections were cut into 4 rings (˜2 mm each) and suspended on 2 L-shaped hooks, with one hook fixed at the bottom of the tissue bath (Schuler Organ Bath, Harvard Apparatus) and the other connected to a force transducer (F30 Force Transducer, Harvard Apparatus). Baths contained Krebs Henseleit solution (10 mL) heated to 37° C. and aerated with 95% O2 and 5% CO2. Rings were brought to an initial tension of 0.3-0.5 g and gradually raised to a resting tension of 1.0 g over 60 minutes. Rings were rinsed with Krebs Henseleit solution (heated to 37° C. and aerated with 95% 02 and 5% CO2) at 15 minute intervals until a stable baseline was obtained. Rings were considered to be stable after a resting tension of 1.0 g was maintained (for approximately 10 minutes) without need for adjustment. Rings were then contracted with 100 ng/mL phenylephrine by adding 100 μL of a 10 μg/mL phenylephrine stock solution. Tissues achieving a stable contraction were then treated in a cumulative, dose dependent manner with test compounds prepared in dimethylsulfoxide (DMSO). In some cases, tissues were rinsed three times over a 5 minute period with Krebs-Heinseleit's solution (heated to 37° C. and aerated with 95% 02 and 5% CO2), allowed to stabilize at baseline, and then used for characterization of other test articles or DMSO effects. All data were collected using the HSE-ACAD software provided by Harvard Apparatus. Percent relaxation effects were calculated in Microsoft Excel using the recorded tension value of 100 ng/mL phenylephrine treatment as 0% inhibition and, after washing the tissue with buffer, the original resting tension of tissue is used as 100% inhibition. EC50 values were calculated from concentration-response curves generated with GraphPad Prism Software.
The biological data for some of the compounds of Formula IA and Formula IB, in comparison with the prior art compound, BAY 41-2272, as the reference compound, determined by the thoracic aorta ring assay are presented in Table 6 below.

EC50: < 1000 nM
Structure (SMILES): Nc1nc(-c2nn(Cc3ccccc3F)c3ncccc23)ncc1C1CC1 [BAY-41-2272, reference compound]
